Experiment [1] concerns MDA‐MB‐231. As to the kind of experiment: Cell growth inhibition, CellTiter‐Glo (CTG). Type of experiment: cell-based. Conditions: Homo sapiens, MDA-MB-231, 120 h, read-out: IC50 MDA‐MB‐231; CTG, 5 days, n = 3. Here is the method:
(§1) All cells were grown in a humidified incubator at 37 °C and 5% CO2.
(§2) […] […] Relative viability was calculated by normalizing the raw luminescence counts of the treated groups to those of the DMSO control groups. IC₅₀ values were calculated using sigmoidal dose‐response curve fitting with GraphPad Prism 9.0 software.

Experiment [2] has as its system MDA‐MB‐468. Put plainly: Cell growth inhibition, CellTiter‐Glo (CTG). Conditions: Homo sapiens, MDA-MB-468, 120 h; CTG, 5 days, n = 3. Type of experiment: cell-based. The method, then: as §1, §2
Experiment [3] has as its system MDA‐MB‐436. As to the kind of experiment: Cell growth inhibition, CellTiter‐Glo (CTG). Type of experiment: cell-based. To be noted: Homo sapiens; for inhibition at 5 µM: MDA-MB-436, read-out: MDA‐MB‐436 inhibitory rate at certain concentration; for IC50: MDA-MB-436, 120 h, CTG, 5 days, n = 3. Here is the method:
as §1
Growth viability was determined by the CellTiter‐Glo luminescent viability assay (Promega) 5 days after drug treatment. Cell viability was measured immediately after dosing (Day 0) and after 5 days of incubation using CellTiter‐Glo (CTG, Promega, G7573). Relative viability was calculated by normalizing the raw luminescence counts of the treated groups to those of the DMSO control groups. IC₅₀ values were calculated using sigmoidal dose‐response curve fitting with GraphPad Prism 9.0 software.

For experiment [4], the target named is T1, ATR (Homo sapiens, UniProt Q13535).
T1 construct: purchased Eurofins 14-953
As to the kind of experiment: ATR kinase inhibition, Mobility Shift Assay. It counts as biochemical. Conditions: n = 3, mean ± SD. The method, then:
The in vitro ATR kinase inhibitory activities were determined by ChemPartner Co., Ltd. (Shanghai, China) using the Mobility Shift Assay. The tested compound was dissolved with DMSO and diluted to 1000/3 × of the final desired highest inhibitor concentration in the reaction. […] The assay wells were incubated at 28 °C for 4 h.

The target of experiment [5] is PARP1 (Homo sapiens, UniProt P09874). As to the kind of experiment: PARP enzymatic inhibition ELISA (PARP1). To be noted: n = 3, mean ± SD. Type of experiment: biochemical. Here is the method: The PARP activity assay was performed by ChemPartner (Shanghai, China). Each well was precoated with histone (final conc.: 100 ng mL^−1) diluted in PBS buffer (contains 10 mmol L^−1 NaH2PO4 and 150 mmol L^−1 NaCl, pH 7.4) by incubation at 4 °C overnight. […] The reaction was initiated by the addition of 10 µL of PARP (final conc.: 0.007 nM/well) at room temperature for 60 min. Add 20 µL of anti‐Poly/Mono‐ADP Ribose Rabbit mAb. Incubate for 1.5 h at room temperature and wash the plate three times using PBST buffer. […] Incubate for 1 h at room temperature and wash the plate three times using PBST buffer. Add 25 µL Femto‐ECL Substrate A and Femto‐ECL Substrate B (1:1) mix. Immediately read chemiluminescence on Envision (Revvity, USA).

A value given as a limit tells only on which side of the number the result lay.

By IC50 is commonly meant the midpoint of a concentration-inhibition curve.

PARP1, sequence (P09874 whole entry): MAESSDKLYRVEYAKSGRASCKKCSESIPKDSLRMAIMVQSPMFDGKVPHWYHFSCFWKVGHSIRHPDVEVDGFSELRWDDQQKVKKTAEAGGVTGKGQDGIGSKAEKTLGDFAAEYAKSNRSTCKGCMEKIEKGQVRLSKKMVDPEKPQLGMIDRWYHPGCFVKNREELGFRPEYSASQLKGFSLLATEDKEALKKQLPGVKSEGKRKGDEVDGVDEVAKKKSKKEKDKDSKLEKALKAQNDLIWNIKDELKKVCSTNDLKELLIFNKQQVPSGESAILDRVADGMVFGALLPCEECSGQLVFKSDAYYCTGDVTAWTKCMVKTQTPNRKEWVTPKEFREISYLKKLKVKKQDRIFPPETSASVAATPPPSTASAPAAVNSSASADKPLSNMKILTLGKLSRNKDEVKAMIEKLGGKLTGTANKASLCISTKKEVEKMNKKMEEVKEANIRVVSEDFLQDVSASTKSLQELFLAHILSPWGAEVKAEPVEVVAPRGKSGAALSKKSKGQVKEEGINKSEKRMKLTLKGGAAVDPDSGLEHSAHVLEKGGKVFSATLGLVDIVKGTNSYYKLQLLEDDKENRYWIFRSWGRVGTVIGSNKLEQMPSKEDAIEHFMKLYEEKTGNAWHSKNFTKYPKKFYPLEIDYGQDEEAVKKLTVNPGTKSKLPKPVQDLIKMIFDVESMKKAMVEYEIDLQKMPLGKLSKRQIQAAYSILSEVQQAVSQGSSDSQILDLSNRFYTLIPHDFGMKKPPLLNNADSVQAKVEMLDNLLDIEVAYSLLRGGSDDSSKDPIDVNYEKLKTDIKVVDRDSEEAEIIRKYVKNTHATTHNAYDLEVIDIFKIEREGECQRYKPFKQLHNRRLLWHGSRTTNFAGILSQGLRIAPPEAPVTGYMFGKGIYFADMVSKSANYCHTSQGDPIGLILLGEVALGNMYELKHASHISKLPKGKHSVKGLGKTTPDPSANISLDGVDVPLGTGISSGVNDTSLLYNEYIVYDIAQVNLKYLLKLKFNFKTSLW
T1 sequence (Q13535 whole entry): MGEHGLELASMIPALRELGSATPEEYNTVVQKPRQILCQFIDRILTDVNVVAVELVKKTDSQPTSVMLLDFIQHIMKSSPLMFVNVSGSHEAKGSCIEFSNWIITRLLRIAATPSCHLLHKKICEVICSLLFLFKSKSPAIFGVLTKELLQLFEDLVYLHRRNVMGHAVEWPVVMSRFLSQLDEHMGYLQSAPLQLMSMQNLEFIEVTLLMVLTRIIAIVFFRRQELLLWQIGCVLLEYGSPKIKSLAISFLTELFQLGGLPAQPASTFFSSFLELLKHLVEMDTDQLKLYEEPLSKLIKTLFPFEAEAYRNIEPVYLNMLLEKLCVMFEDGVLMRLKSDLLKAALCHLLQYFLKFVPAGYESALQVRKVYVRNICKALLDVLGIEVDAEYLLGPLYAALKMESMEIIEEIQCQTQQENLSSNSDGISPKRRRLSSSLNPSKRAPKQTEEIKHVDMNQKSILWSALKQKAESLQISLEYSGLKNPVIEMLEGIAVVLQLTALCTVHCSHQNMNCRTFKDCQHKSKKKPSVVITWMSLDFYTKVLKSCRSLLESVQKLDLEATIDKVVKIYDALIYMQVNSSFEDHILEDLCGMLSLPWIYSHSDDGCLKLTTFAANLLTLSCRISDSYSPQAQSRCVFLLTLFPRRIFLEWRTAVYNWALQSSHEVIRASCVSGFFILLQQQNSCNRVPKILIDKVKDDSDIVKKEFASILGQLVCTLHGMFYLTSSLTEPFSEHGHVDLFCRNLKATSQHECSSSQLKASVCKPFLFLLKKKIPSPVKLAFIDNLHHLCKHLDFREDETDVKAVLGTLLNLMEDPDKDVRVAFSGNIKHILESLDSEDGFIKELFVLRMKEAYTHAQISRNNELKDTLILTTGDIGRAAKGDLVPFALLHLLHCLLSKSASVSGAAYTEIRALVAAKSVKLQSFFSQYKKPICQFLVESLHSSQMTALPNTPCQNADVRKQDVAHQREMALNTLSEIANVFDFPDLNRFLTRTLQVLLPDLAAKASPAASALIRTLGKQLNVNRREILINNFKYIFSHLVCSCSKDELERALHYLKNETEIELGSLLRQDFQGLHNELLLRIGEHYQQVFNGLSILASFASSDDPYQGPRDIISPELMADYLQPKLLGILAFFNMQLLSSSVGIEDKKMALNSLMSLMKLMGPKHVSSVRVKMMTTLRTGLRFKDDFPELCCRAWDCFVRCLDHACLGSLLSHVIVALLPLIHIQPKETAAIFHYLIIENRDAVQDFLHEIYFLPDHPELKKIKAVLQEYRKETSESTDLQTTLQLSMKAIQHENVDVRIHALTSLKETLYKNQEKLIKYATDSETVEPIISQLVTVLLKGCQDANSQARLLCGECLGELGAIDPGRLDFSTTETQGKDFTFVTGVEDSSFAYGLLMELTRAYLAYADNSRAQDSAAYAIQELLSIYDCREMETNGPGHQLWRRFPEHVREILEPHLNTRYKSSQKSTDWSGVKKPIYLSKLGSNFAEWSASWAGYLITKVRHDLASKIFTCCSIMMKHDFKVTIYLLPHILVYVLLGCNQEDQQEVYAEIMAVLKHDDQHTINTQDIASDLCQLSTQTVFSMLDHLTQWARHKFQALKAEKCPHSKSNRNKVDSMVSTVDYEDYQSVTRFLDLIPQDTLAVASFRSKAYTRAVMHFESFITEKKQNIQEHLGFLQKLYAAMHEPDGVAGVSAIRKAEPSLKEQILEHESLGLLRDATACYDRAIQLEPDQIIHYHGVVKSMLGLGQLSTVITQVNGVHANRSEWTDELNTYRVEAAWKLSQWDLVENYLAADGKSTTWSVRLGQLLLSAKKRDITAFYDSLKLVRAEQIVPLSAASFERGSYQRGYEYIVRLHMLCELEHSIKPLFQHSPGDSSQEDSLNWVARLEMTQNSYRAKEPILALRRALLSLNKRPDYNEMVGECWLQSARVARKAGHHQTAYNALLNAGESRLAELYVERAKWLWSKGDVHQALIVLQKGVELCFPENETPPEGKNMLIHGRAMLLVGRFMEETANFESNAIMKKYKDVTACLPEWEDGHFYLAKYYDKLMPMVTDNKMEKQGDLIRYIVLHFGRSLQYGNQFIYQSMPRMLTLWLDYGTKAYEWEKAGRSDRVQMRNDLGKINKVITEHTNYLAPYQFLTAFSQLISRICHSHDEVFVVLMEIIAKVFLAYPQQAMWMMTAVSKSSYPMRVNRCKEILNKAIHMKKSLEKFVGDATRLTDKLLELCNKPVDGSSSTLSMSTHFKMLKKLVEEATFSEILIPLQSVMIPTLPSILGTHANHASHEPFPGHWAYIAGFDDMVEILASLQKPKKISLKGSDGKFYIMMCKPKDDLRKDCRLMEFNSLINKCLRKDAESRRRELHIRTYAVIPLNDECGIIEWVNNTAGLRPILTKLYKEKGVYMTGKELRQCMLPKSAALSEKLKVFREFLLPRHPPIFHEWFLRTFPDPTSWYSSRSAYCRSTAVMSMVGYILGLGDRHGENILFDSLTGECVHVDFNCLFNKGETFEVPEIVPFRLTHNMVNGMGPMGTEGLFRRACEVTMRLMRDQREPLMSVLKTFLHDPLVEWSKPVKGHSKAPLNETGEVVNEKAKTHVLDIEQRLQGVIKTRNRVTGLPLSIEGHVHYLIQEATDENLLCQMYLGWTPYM
T1 sequence (Q8WXE1 whole entry partner): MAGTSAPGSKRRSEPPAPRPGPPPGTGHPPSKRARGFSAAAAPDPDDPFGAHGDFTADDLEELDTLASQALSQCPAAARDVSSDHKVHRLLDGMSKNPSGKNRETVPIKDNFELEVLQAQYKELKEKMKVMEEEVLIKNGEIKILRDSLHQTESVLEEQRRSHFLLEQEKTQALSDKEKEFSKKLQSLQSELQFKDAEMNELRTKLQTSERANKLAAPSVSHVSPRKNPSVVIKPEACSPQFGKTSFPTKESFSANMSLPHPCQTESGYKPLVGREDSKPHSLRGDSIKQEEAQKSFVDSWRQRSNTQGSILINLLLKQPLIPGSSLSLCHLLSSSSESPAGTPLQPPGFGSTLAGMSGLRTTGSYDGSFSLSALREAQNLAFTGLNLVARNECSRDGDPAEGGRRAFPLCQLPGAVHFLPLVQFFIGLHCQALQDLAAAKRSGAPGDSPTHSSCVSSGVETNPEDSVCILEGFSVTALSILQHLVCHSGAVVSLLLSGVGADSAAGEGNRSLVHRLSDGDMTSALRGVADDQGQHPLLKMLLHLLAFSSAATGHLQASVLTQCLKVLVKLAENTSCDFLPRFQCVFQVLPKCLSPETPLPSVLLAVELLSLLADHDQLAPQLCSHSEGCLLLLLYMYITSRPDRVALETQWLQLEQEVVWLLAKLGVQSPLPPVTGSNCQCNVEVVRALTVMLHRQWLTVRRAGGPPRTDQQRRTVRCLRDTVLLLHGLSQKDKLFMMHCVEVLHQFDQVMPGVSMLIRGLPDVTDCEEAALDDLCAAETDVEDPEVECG

For the compound `C[C@@H]1COCCN1c1cc(C2(N)CC2)nc(-c2ccnc3[nH]ccc23)n1` [Compound 23], the IC50 in experiment [1] was 40700 ± 1360 nM; in experiment [2], greater than 50000 nM. The inhibition at 5 µM in experiment [3] was 20.5%.
On the same counts, the results for `C[C@@H]1COCCN1c1cc(CN)nc(-c2ccnc3[nH]ccc23)n1` [Compound 28] are greater than 50000 nM, 40800 ± 4450 nM and 21.4%.
`C[C@@H]1COCCN1c1cc(C2(NC(=O)C3CCN(C(=O)c4cc(Cc5n[nH]c(=O)c6ccccc56)ccc4F)CC3)CC2)nc(-c2ccnc3[nH]ccc23)n1` [Compound A5, (R)‐1‐(2‐fluoro‐5‐((4‐oxo‐3,4‐dihydrophthalazin‐1‐yl)methyl)benzoyl)‐N‐(1‐(6‐(3‐methylmorpholino)‐2‐(1H‐pyrrolo[2,3‐b]pyridin‐4‐yl)pyrimidin‐4‐yl)cyclopropyll)piperidine‐4‐carboxamide]: the IC50 was found to be 143 ± 11 nM in experiment [4]; 1.08 ± 0.74 nM in experiment [5]; 3630 ± 1410 nM in experiment [1]; 570 ± 80 nM in experiment [2]; 570 ± 40 nM in experiment [3].
On the same counts, the results for `C[C@@H]1COCCN1c1cc(C2(NC(=O)N3CCN(C(=O)c4cc(Cc5n[nH]c(=O)c6ccccc56)ccc4F)CC3)CC2)nc(-c2ccnc3[nH]ccc23)n1` [Compound A6, (R)‐4‐(2‐fluoro‐5‐((4‐oxo‐3,4‐dihydrophthalazin‐1‐yl)methyl)benzoyl)‐N‐(1‐(6‐(3‐methylmorpholino)‐2‐(1H‐pyrrolo[2,3‐b]pyridin‐4‐yl)pyrimidin‐4‐yl)cyclopropyll)piperazine‐1‐carboxamide] are greater than 500 nM, 0.98 ± 0.88 nM, 4160 ± 1090 nM, 1150 ± 10 nM and 590 ± 10 nM.
Take `C[C@@H]1COCCN1c1cc(CNC(=O)CNC(=O)c2cc(Cc3n[nH]c(=O)c4ccccc34)ccc2F)nc(-c2ccnc3[nH]ccc23)n1` [Compound B2, (R)‐2‐fluoro‐N‐(2‐(((6‐(3‐methylmorpholino)‐2‐(1H‐pyrrolo[2,3‐b]pyridin‐4‐yl)pyrimidin‐4‐yl)methyl)amino)‐2‐oxoethyl)‐5‐((4‐oxo‐3,4‐dihydrophthalazin‐1‐yl)methyl)benzamide]: the IC50 was determined as 168 ± 7.8 nM in experiment [4], 16 ± 2.4 nM in experiment [5], 10580 ± 10 nM in experiment [1] and 8410 ± 610 nM in experiment [2]. Moreover, in experiment [3], the inhibition at 5 µM stood at 40.3%.
On the same counts, the results for `C[C@@H]1COCCN1c1cc(CNC(=O)CCNC(=O)c2cc(Cc3n[nH]c(=O)c4ccccc34)ccc2F)nc(-c2ccnc3[nH]ccc23)n1` [Compound B3, (R)‐2‐fluoro‐N‐(3‐(((6‐(3‐methylmorpholino)‐2‐(1H‐pyrrolo[2,3‐b]pyridin‐4‐yl)pyrimidin‐4‐yl)methyl)amino)‐3‐oxopropyl)‐5‐((4‐oxo‐3,4‐dihydrophthalazin‐1‐yl)methyl)benzamide] are 347 ± 15.7 nM, 9.5 ± 1.8 nM, 14300 ± 1400 nM, 17700 ± 530 nM and 34.9%.
In the same order, the values of `C[C@@H]1COCCN1c1cc(CNC(=O)CCCNC(=O)c2cc(Cc3n[nH]c(=O)c4ccccc34)ccc2F)nc(-c2ccnc3[nH]ccc23)n1` [Compound B4, (R)‐2‐fluoro‐N‐(4‐(((6‐(3‐methylmorpholino)‐2‐(1H‐pyrrolo[2,3‐b]pyridin‐4‐yl)pyrimidin‐4‐yl)methyl)amino)‐4‐oxobutyl)‐5‐((4‐oxo‐3,4‐dihydrophthalazin‐1‐yl)methyl)benzamide] are 111 ± 8.1 nM, 6.2 ± 0.9 nM, 14300 ± 3910 nM, 6830 ± 100 nM and 47%.
Take `C[C@@H]1COCCN1c1cc(CNC(=O)C2CCN(C(=O)c3cc(Cc4n[nH]c(=O)c5ccccc45)ccc3F)CC2)nc(-c2ccnc3[nH]ccc23)n1` [Compound B5, (R)‐1‐(2‐fluoro‐5‐((4‐oxo‐3,4‐dihydrophthalazin‐1‐yl)methyl)benzoyl)‐N‐((6‐(3‐methylmorpholino)‐2‐(1H‐pyrrolo[2,3‐b]pyridin‐4‐yl)pyrimidin‐4‐yl)methyl)piperidine‐4‐carboxamide]: the IC50 in experiment [4] was determined as 36.7 ± 4.6 nM; in experiment [5], 1.2 ± 0.3 nM; in experiment [1], 4480 ± 1080 nM; in experiment [2] it was 1460 ± 100 nM; in experiment [3], 1190 ± 230 nM.
On the same counts, the results for `C[C@@H]1COCCN1c1cc(CNS(=O)(=O)C2CCN(C(=O)c3cc(Cc4n[nH]c(=O)c5ccccc45)ccc3F)CC2)nc(-c2ccnc3[nH]ccc23)n1` [Compound B6, (R)‐1‐(2‐fluoro‐5‐((4‐oxo‐3,4‐dihydrophthalazin‐1‐yl)methyl)benzoyl)‐N‐((6‐(3‐methylmorpholino)‐2‐(1H‐pyrrolo[2,3‐b]pyridin‐4‐yl)pyrimidin‐4‐yl)methyl)piperidine‐4‐sulfonamide] are 112 ± 5.3 nM, 0.46 ± 0.1 nM, 3960 ± 2050 nM, 700 ± 70 nM and 780 ± 80 nM.
In the case of `C[C@@H]1COCCN1c1cc(CNC(=O)N2CCN(C(=O)c3cc(Cc4n[nH]c(=O)c5ccccc45)ccc3F)CC2)nc(-c2ccnc3[nH]ccc23)n1` [Compound B7, (R)‐4‐(2‐fluoro‐5‐((4‐oxo‐3,4‐dihydrophthalazin‐1‐yl)methyl)benzoyl)‐N‐((6‐(3‐methylmorpholino)‐2‐(1H‐pyrrolo[2,3‐b]pyridin‐4‐yl)pyrimidin‐4‐yl)methyl)piperazine‐1‐carboxamide], the IC50 in experiment [4] was 78.8 ± 6.2 nM; in experiment [5], 0.76 ± 0.09 nM; in experiment [1], 1600 ± 90 nM; in experiment [2] it was 960 ± 40 nM; in experiment [3] it was 1290 ± 560 nM.
`C[C@@H]1COCCN1c1cc(CNC(=O)c2ccc(CN3CCN(C(=O)c4cc(Cc5n[nH]c(=O)c6ccccc56)ccc4F)CC3)cc2)nc(-c2ccnc3[nH]ccc23)n1` [Compound B12, (R)‐4‐((4‐(2‐fluoro‐5‐((4‐oxo‐3,4‐dihydrophthalazin‐1‐yl)methyl)benzoyl)piperazin‐1‐yl)methyl)‐N‐((6‐(3‐methylmorpholino)‐2‐(1H‐pyrrolo[2,3‐b]pyridin‐4‐yl)pyrimidin‐4‐yl)methyl)benzamide]: the IC50 in experiment [4] is 37 ± 4.2 nM; in experiment [5], 2 ± 0.3 nM; in experiment [1] it was greater than 50000 nM; in experiment [2], 2830 ± 60 nM.
Take `C[C@@H]1COCCN1c1cc(CNC(=O)c2ccc(N3CCN(C(=O)c4cc(Cc5n[nH]c(=O)c6ccccc56)ccc4F)CC3)cc2)nc(-c2ccnc3[nH]ccc23)n1` [Compound B13, (R)‐4‐(4‐(2‐fluoro‐5‐((4‐oxo‐3,4‐dihydrophthalazin‐1‐yl)methyl)benzoyl)piperazin‐1‐yl)‐N‐((6‐(3‐methylmorpholino)‐2‐(1H‐pyrrolo[2,3‐b]pyridin‐4‐yl)pyrimidin‐4‐yl)methyl)benzamide]: the IC50 in experiment [4] is 22 ± 1.7 nM; in experiment [5], 1.3 ± 0.6 nM; in experiment [1], greater than 50000 nM; in experiment [2], 990 ± 60 nM.
On the same counts, the results for `C[C@@H]1COCCN1c1cc(CNC(=O)c2cnc(N3CCN(C(=O)c4cc(Cc5n[nH]c(=O)c6ccccc56)ccc4F)CC3)nc2)nc(-c2ccnc3[nH]ccc23)n1` [Compound B14, (R)‐2‐(4‐(2‐fluoro‐5‐((4‐oxo‐3,4‐dihydrophthalazin‐1‐yl)methyl)benzoyl)piperazin‐1‐yl)‐N‐((6‐(3‐methylmorpholino)‐2‐(1H‐pyrrolo[2,3‐b]pyridin‐4‐yl)pyrimidin‐4‐yl)methyl)pyramidine‐5‐carboxamide] are 23 ± 2.1 nM, 1.2 ± 0.4 nM, greater than 50000 nM and 90 ± 10 nM.

The record behind these values is PMC12362783 (Advanced Science, 2025).
